Where “and” joins values, the source holds several entries; their conditions need not be identical. Identical values can stand only once. Bridge positions count the residues as written; N and C are the ends. Square brackets hold non-standard residues; d marks the D form. Peptide text beside a SMILES is read from it. * marks the point of attachment. ξ: configuration not given here. NMeI = CC[CH](C)[CH](NC)C(=O)O; ξNMe2Val = CC(C)C(C(=O)*)N(C)C; NMeT = CN[CH](C(=O)O)[CH](C)O; NMeL = CN[CH](CC(C)C)C(=O)O; Hiv = CC(C)[CH](O)C(=O)O; NMeS = CN[CH](CO)C(=O)O; NMeA = CN[CH](C)C(=O)O
Columns and labels:
[1] = system: NCI-H460 human lung tumor cells; test: MTT cytotoxicity, NCI-H460 cells; type: cell-based; settings: 48 hours, read-out: LC50 (the source's name)
Procedure: (§1) Cytotoxicity was measured in NCI-H460 human lung tumor cells and neuro-2a mouse neuroblastoma cells using the method of Alley et. al. (Cancer Res. (1988) 48:589-601) with cell viability being determined by 3-(4,5-dimethylthiazol-2-yl)-2,5-diphenyltetrazolium bromide (MTT) reduction (Manger et al. (1995) J. AOAC Int., 78:521-527). Cells were seeded in 96-well plates at 6000 cells/well in 180 μL of RPMI 1640 medium with 10% fetal bovine serum. Twenty-four hours later, the test chemical was dissolved in DMSO, diluted into medium without fetal bovine serum and added at 20 μL/well. DMSO was less than 0.5% of the final concentration. After 48 hours, the medium was removed and cell viability determined.

[2] = system: neuro-2a mouse neuroblastoma cells; test: MTT cytotoxicity, neuro-2a cells; type: cell-based; settings: mouse/rat NG108-15, N2a, 48 hours, read-out: LC50 (the source's name)
Procedure: as §1

A-10 cells = test: cytoskeletal immunofluorescence study in A-10 cells; type: cell-based
Procedure: (§2) Cytoskeletal assays were carried out on 1. […] Therefore, it was hypothesized that 1 might cause mitotic abnormalities by a non-tubulin dependent mechanism, and flow cytometry studies were initiated to look at the effect of the compound on cell cycle distribution (FIG. 2).

[3] = system: HeLa cervical cancer cells; test: immunofluorescence study in HeLa cells; type: cell-based
Procedure: as §2

MDA-MB-435 cells = test: cell cycle analysis by flow cytometry; type: cell-based; settings: 24 hours
Procedure: For cell cycle analysis, MDA-MB-435 cells were treated for 24 hours with vehicle or sample. The cells were harvested and stained with Krishan's reagent. This suspension was analyzed using a Becton Dickinson FACScan flow cytometer, and the data were plotted as propidium iodide intensity versus the number of events. Quality control samples were run with each assay to ensure instrument linearity and resolution.

[4] = system: histone deacetylase (HDAC); test: HDAC inhibition; type: biochemical
[5] = system: National Cancer Institute NCI60 tumor cell lines; test: NCI60 tumor cell line panel; type: cell-based, human
Procedure: (§3) Coibamide A was tested against the National Cancer Institute NCI60 tumor cell lines (dtp.nci.nih.gov/branches/btb/ivclsp.html; Shoemaker, R. H. (2006) Nat. Rev. Cancer, 6:813-823), which comprises 60 human cancer cell lines including leukemias, melanomas, ovarian, renal, prostate, breast, colon, lung and central nervous system (CNS) cancers (the data from two screens are provided in FIGS. 3A and 3B). […] Growth inhibition of 50% (GI50) is the drug concentration resulting in a 50% reduction in the net protein increase in control cells during the drug incubation. Similarly, total growth inhibition (TGI) is the drug concentration resulting in zero net protein increase in control cells, and the lethal concentration of 50% (LC50) is the drug concentration resulting in a 50% reduction in the measured protein at the end of the drug treatment as compared to that at the beginning, (a net loss of cells following treatment). […] Coibamide A produced mean cytostatic (GI50 and TGI with range) and cytotoxic (LC50 and range) parameters as follows: log GI50, −8.04 (2.96); log TGI, −5.85 (3.43); log LC50, −5.11 (2.66). These log mean values of <−4 with log range values of >2 indicate both potency and histological selectivity (FIG. 4).

SR (leukemia) = test: NCI60 screen, SR; type: cell-based, human
Procedure: as §3

HOP-92 (NSCLC) = test: NCI60 screen, HOP-92; type: cell-based, human
Procedure: as §3

COLO 205 (colon cancer) = test: NCI60 screen, COLO 205; type: cell-based, human
Procedure: as §3

HCC-2998 (colon cancer) = test: NCI60 screen, HCC-2998; type: cell-based, human
Procedure: as §3

HT29 (colon cancer) = test: NCI60 screen, HT29; type: cell-based, human
Procedure: as §3

SF-295 (CNS cancer) = test: NCI60 screen, SF-295; type: cell-based, human; settings: first screen
Procedure: as §3

SF-539 (CNS cancer) = test: NCI60 screen, SF-539; type: cell-based, human
Procedure: as §3

LOX IMVI (melanoma) = test: NCI60 screen, LOX IMVI; type: cell-based, human
Procedure: as §3

SK-MEL-5 (melanoma) = test: NCI60 screen, SK-MEL-5; type: cell-based, human
Procedure: as §3

SK-OV-3 (ovarian cancer) = test: NCI60 screen, SK-OV-3; type: cell-based, human; settings: first screen
Procedure: as §3

[6] = system: MDA-MB-231/ATCC (breast cancer); test: NCI60 screen, MDA-MB-231/ATCC; type: cell-based, human
Procedure: as §3

T-47D (breast cancer) = test: NCI60 screen, T-47D; type: cell-based, human
Procedure: as §3

HL60(TB) (leukemia) = test: NCI60 screen, HL60(TB); type: cell-based, human; settings: second screen
SNB-75 (CNS cancer) = test: NCI60 screen, SNB-75; type: cell-based, human; settings: second screen
Procedure: as §3

M-14 (melanoma) = test: NCI60 screen, M-14; type: cell-based, human; settings: second screen
Procedure: as §3

UACC-62 = test: NCI60 screen, UACC-62; type: cell-based, human; settings: second screen
Procedure: as §3

A498 (renal cancer) = test: NCI60 screen, A498; type: cell-based, human; settings: second screen
Procedure: as §3

RXF 393 (renal cancer) = test: NCI60 screen, RXF 393; type: cell-based, human; settings: second screen
Procedure: as §3

[7] = system: MDA-MB-435 (breast cancer); test: NCI60 screen, MDA-MB-435; type: cell-based, human; settings: second screen
Procedure: as §3

[8] = mean over the panel, log range in brackets, preliminary

## CCC(C)C1C(=O)NC(C)C(=O)N(C)C(CC(C)C)C(=O)NC(Cc2ccc(OC)cc2)C(=O)N(C)C(C)C(=O)OC(C)C(N(C)C(=O)C(CC(C)C)N(C)C(=O)C(COC)N(C)C(=O)C(OC(=O)C(C(C)C)N(C)C)C(C)C)C(=O)N(C)C(COC)C(=O)N1C (centres unmarked) [Coibamide A] (ξNMe2Val-[Hiv][NMeS](Me)[NMeL][NMeT][NMeS](Me)[NMeI]A[NMeL]Y(Me)[NMeA]; ester 4-C; configuration not given here)
[1]
  CC50: > 0.03 µg/mL and > 23 nM
[2]
  CC50: > 0.03 µg/mL and > 23 nM
A-10 cells
  microtubule changes: did not show any of the expected microtubule changes
  mitotic spindles: some monopolar mitotic spindles were observed
[3]; 100 nM concentration
  mitotic structures: two aberrant mitotic structures were observed
[3]; immunofluorescence
  phenotypic effects on microtubules or nuclear structures: did not show any expected phenotypic effects on microtubules or on nuclear structures
MDA-MB-435 cells
  cells in G2/M: no change in G2/M
  mitotic accumulation: does not cause any significant mitotic accumulation
MDA-MB-435 cells; dose dependent
  cells in G1 phase: large increase in the number of cells in G1 phase
  cells in S phase: reduction of cells in S phase
[4]
  HDAC inhibitor activity: no significant activity
[5]
  activity by cancer type from the mean graph for GI50 values: consistently active against leukemias, CNS, colon, and breast cancer cells
[5]; 53 of the 55 cancer cell lines screened
  GI50 values: Nanomolar or better
[5]; Homo sapiens, mean over the panel, log range in brackets, preliminary, read-out: mean log LC50 (range) (converted)
  CC50: 7760 nM
[5]; [8]
  mean log GI50 (range): −8.04 (2.96)
  mean log TGI (range): −5.85 (3.43)
SR (leukemia); first screen
  TGI: 16.6 nM
SR (leukemia); second screen
  TGI: 87.0 nM
HOP-92 (NSCLC); first screen
  TGI: 25.4 nM
HOP-92 (NSCLC); second screen
  TGI: 11.4 nM
COLO 205 (colon cancer); Homo sapiens, COLO 205, NCI60 screen, read-out: LC50 (the source's name)
  CC50: 35.8 nM
COLO 205 (colon cancer); first screen
  TGI: 4.9 nM
COLO 205 (colon cancer); second screen
  TGI: 15.7 nM
HCC-2998 (colon cancer); Homo sapiens, HCC 2998, undefined activity
  GI50: < 1 nM
HCC-2998 (colon cancer); first screen
  TGI: 8.3 nM
HCC-2998 (colon cancer); second screen
  TGI: 93.7 nM
HT29 (colon cancer); Homo sapiens, HT-29, NCI60 screen
  LC50 (concentration giving 50% net cell loss): 93.3 nM
HT29 (colon cancer); Homo sapiens, HT-29, undefined activity
  GI50: < 1 nM
HT29 (colon cancer); first screen
  TGI: 10.4 nM
HT29 (colon cancer); second screen
  TGI: 14.6 nM
SF-295 (CNS cancer)
  TGI: 21.9 nM
SF-539 (CNS cancer); first screen
  TGI: 30.3 nM
SF-539 (CNS cancer); second screen
  TGI: 28.7 nM
LOX IMVI (melanoma); first screen
  TGI: 6.6 nM
LOX IMVI (melanoma); second screen
  TGI: 7.4 nM
SK-MEL-5 (melanoma); Homo sapiens, SK-MEL-5, undefined activity
  GI50: < 1 nM
SK-MEL-5 (melanoma); first screen
  TGI: 6.0 nM
SK-MEL-5 (melanoma); second screen
  TGI: 26.9 nM
SK-OV-3 (ovarian cancer)
  TGI: 9.8 nM
[6]; first screen
  TGI: 25.1 nM
[6]; second screen
  TGI: 2.8 nM
T-47D (breast cancer); Homo sapiens, T47D, undefined activity
  GI50: < 1 nM
T-47D (breast cancer); first screen
  TGI: 5.4 nM
HL60(TB) (leukemia)
  TGI: 7.4 nM
SNB-75 (CNS cancer)
  TGI: 7.6 nM
M-14 (melanoma)
  TGI: 11.2 nM
UACC-62
  TGI: 80.6 nM
A498 (renal cancer)
  TGI: 74.4 nM
RXF 393 (renal cancer)
  TGI: 82.3 nM
[7]
  TGI: 100 nM

Source: patent publication US8034780B2, “Isolation, purification, and structure elucidation of the antiproliferative compound coibamide A” (priority 2007, dated 2011)
